In patent US20130158132A1, “Formulation Solution Adapted To Prolong Plasma Times Of Drugs In Mammals Including Humans” (priority 2011, published 2013):
Blank lines part the entries; values can stand above or below the compound they belong to.

Legend:
[1] = Decoquinate concentration in mouse plasma and liver, with and without prolongation solution; format: in vivo; parameters: concentration of the drug in plasma / concentration of the drug in liver: unit not given here; details: mice; for concentration of the drug in liver / concentration of the drug in plasma: 0.5 ml injected
Procedure: (§1) The following examples used laboratory rats and mice.
Decoquinate solution was mixed with two solutions: one with the prolongation solution of Example 1 and one without the prolongation solution. Each solution contained an identical and normal dosage of the drug. In both cases, 0.5 ml of solution was injected into mice of approximately identical weight. The concentration of the drug in plasma and liver was chected by high performance then layer chromatography in mouse liver and plasma.

[2] = Glipizide serum level in rats after one-time administration; format: in vivo; details: rat, other: injected, about 0.25 mg in 3 ml prolongation solution of Example 1, injected
Procedure: as §1
Serum testing was conducted after one-time initial administration.

[3] = single 5 mg dose; cited from earlier work
[4] = rat, in vivo, 24 h
in vivo = details: rat, Quinine serum level
[5] = after 24 hours; cited from earlier work
[6] = Rifampicin serum level in rats after one-time administration; format: in vivo; details: for concentration at 14 h / concentration at 32 h: serum
Procedure: as §1
Serum testing was conducted after one-time initial administration to rats. The Rifampicin level remained:
Control test using water alone on 8 mg/rat. […] Thus, the prolongation solution is effective at reduced drug administration levels.

[7] = human, single 600 mg dose; cited from earlier work
[8] = single 2.0 gram dose, cited from earlier work
[9] = NE-No Prolongation Solution, 0.5 hours
[10] = NE-No Prolongation Solution, 1 hour
[11] = NE-No Prolongation Solution, 2 hours
[12] = NE-No Prolongation Solution, 4 hours
[13] = NE-No Prolongation Solution, 8 hours
[14] = NE-No Prolongation Solution, 24 hours
[15] = PF-Prolongation Solution of Example 1, 0.5 hours
[16] = PF-Prolongation Solution of Example 1, 1 hour
[17] = PF-Prolongation Solution of Example 1, 2 hours
[18] = PF-Prolongation Solution of Example 1, 4 hours
[19] = PF-Prolongation Solution of Example 1, 8 hours
[20] = PF-Prolongation Solution of Example 1, 24 hours
[21] = rat, about 18 mg in 3 ml prolongation solution of Example 1, one-time administration
[22] = about 8 mg/rat with prolongation solution

concentration of the drug in liver [1, 9]: 313860 | concentration of the drug in plasma [1, 9]: 25565 | concentration of the drug in liver [1, 10]: 430820 | concentration of the drug in plasma [1, 10]: 49911 | concentration of the drug in liver [1, 11]: 317950 | concentration of the drug in plasma [1, 11]: 43941 | concentration of the drug in liver [1, 12]: 323180 | concentration of the drug in plasma [1, 12]: 35427 | concentration of the drug in liver [1, 13]: 177470 | concentration of the drug in plasma [1, 13]: 25131 | concentration of the drug in liver [1, 14]: 7014 | concentration of the drug in plasma [1, 14]: 697 | concentration of the drug in liver [1, 15]: 149675 | concentration of the drug in plasma [1, 15]: 15213 | concentration of the drug in liver [1, 16]: 223565 | concentration of the drug in plasma [1, 16]: 24638 | concentration of the drug in liver [1, 17]: 191725 | concentration of the drug in plasma [1, 17]: 27350 | concentration of the drug in liver [1, 18]: 219615 | concentration of the drug in plasma [1, 18]: 29213 | concentration of the drug in liver [1, 19]: 181015 | concentration of the drug in plasma [1, 19]: 27882 | concentration of the drug in liver [1, 20]: 5549 | concentration of the drug in plasma [1, 20]: 457 | drop of Decoquinate level between 1 and 8 hours in plasma ([1]; no prolongation solution): 50% | drop of Decoquinate level between 1 and 8 hours in liver ([1]; no prolongation solution, compared with the 50% drop in plasma): almost as much | change in the level of Decoquinate between 1 and 8 hours ([1]; prolongation solution used): relatively little change | change of concentration of drug in plasma and liver for eight hours ([1]; using the prolongation solution, compared to control): did not change
Structure (SMILES): CCCCCCCCCCOc1cc2c(O)c(C(=O)OCC)cnc2cc1OCC [Decoquinate]

concentration at 26 h ([2]; 26 hours): 0.57 µg/mL | concentration at 52 h ([2]; 52 hours): 1.4 µg/mL
Structure (SMILES): Cc1cnc(C(=O)NCCc2ccc(S(=O)(=O)NC(=O)NC3CCCCC3)cc2)cn1 [Glipizide]
Peak serum level of glipizide [3]: 0.1 to 0.5 µg/mL | time of peak serum level post dose [3]: 1.6 h

Quinine serum level [4]: 2400 ng/mL | concentration at 45 min (in vivo): 4.6 µg/mL | concentration at 4 h (in vivo): 3 µg/mL | concentration at 9 h (in vivo): 1.8 µg/mL | concentration at 13 h (in vivo): 1.6 µg/mL | concentration at 15 h (in vivo): 2.1 µg/mL | concentration at 16 h (in vivo): 0.23 µg/mL | concentration at 24 h (in vivo): 1.4 µg/mL
Structure (SMILES): C=C[C@H]1C[N@@]2CC[C@H]1C[C@H]2[C@H](O)c1ccnc2ccc(OC)cc12 [Quinine]
plasma level after termination of quinine therapy [5]: barely detectable

Rifampicin serum level ([6]; control using water alone, 8 mg/rat, after 14 hours): not being detected | concentration at 14 h [6, 21]: 19 µg/mL | concentration at 32 h [6, 21]: 3.5 µg/mL | concentration at 14 h [6, 22]: 14 µg/mL | concentration at 32 h [6, 22]: 8.5 µg/mL
Structure (SMILES): CO[C@H]1/C=C/O[C@@]2(C)Oc3c(C)c(O)c4c(O)c(c(/C=N/N5CCN(C)CC5)c(O)c4c3C2=O)NC(=O)/C(C)=C\C=C\[C@H](C)[C@H](O)[C@@H](C)[C@@H](O)[C@@H](C)[C@H](OC(C)=O)[C@@H]1C [Rifampicin]
Peak plasma levels of Rifampicin [7]: 3 to 13 µg/mL | time of peak plasma level post dose [7]: approximately 1.8 hours

Structure (SMILES): Cc1noc(NS(=O)(=O)c2ccc(N)cc2)c1C [sulfisoxazole]
mean time of peak plasma concentration [8]: 2.5 h | original dose excreted in the urine ([8]; within 48 hours): About 97%
